{"source": "patent US20020146463A1", "about": "“Health promoting compositions” (priority 2000, published 2002)", "origin": "cited, not measured here", "key": {"[1]": {"conditions": "high versus low levels of folic acid in diet"}, "[2]": {"conditions": "three recent trials"}, "[3]": {"conditions": "500 patients with skin conditions, 180-300 mg beta carotene/day for 10 years"}}}
{"compound": "Nc1nc2ncc(CNc3ccc(C(=O)N[C@@H](CCC(=O)O)C(=O)O)cc3)nc2c(=O)[nH]1", "note": "[folic acid]", "values": [{"measurement": "less likely to suffer a fatal heart attack", "setting": "[1]", "value": 69, "unit": "%"}]}
{"compound": "vitamin E", "values": [{"measurement": "reduction of the risk of heart attacks", "setting": "[2]", "value": "more than half"}]}
{"compound": "CC1=C(/C=C/C(C)=C/C=C/C(C)=C/C=C/C=C(C)/C=C/C=C(C)/C=C/C2=C(C)CCCC2(C)C)C(C)(C)CCC1", "note": "[beta carotene]", "values": [{"measurement": "adverse effects", "setting": "[3]", "value": "without report of adverse effects"}]}
